Test system: carrageenan-induced paw edema
Experiment: Carrageenan-induced rat paw edema
Type: in vivo, Sprague Dawley rats
Conditions: therapeutic dosing: 3 mg/kg orally one hour after 0.375% carrageenan; FIG. 8
Source text: Carrageenan-induced paw edema has been extensively used in the evaluation of anti-inflammatory effects of various therapeutic agents and is a useful experimental system for assessing the efficacy of compounds to alleviate acute inflammation (Whiteley P E and Dalrymple S A, 1998. Models of inflammation: carrageenan-induced paw edema in the rat, in Current Protocols in Pharmacology. Enna S J, Williams M, Ferkany J W, Kenaki T, Porsolt R E and Sullivan J P, eds., pp 5.4.1-5.4.3, John Wiley & Sons, New York). The full development of the edema is neutrophil-dependent (Salvemini D. et al. (1996) Br. J. Pharmacol. 118: 829).
Female Sprague Dawley rats were used in groups of 8-12 and compounds of the invention were administered orally at up to 50 mg/kg 60 min prior to carrageenan exposure. The control group was administered orally an equal volume of vehicle (PBS). Edema in the paws was induced as previously described by injecting 50 μL of a 0.5% solution of carrageenan (Type IV Lambda, Sigma) in saline with a 27-G needle s.c. in the right foot pad. (See Whiteley P. E. and Dalrymple S. A. (1998), Models of inflammation: carrageenan-induced paw edema in the rat, in Current Protocols in Pharmacology, Enna S J, Williams M, Ferkany J W, Kenaki T, Porsolt R E and Sullivan J P, eds., pp 5.4.1-5.4.3, John Wiley & Sons, New York) The size of the tested foot of each animal was measured volumetrically with a plethysmometer immediately after injection of carrageenan solution and at various times up to 360 min after carrageenan induction.
Results of experiments with the compounds II-1-E, I-1-Z, and I-2-Z are shown in FIG. 1, FIG. 5, and FIG. 6, respectively.
Using the same procedure discussed above, the size of the foot of each animal was measured volumetrically before induction of edema, and at 1.5, 3, 4.5 and 6 h after the carrageenan injection. The absolute decreases in paw swelling at 6 h with 1, 10 and 50 mg/kg were 5±11%, 20±9% and 32±6% respectively. Statistical analyses were performed with repeated measures ANOVA followed by Dunnett's test for multiple comparisons.
Paw edema was induced in groups of eight Sprague Dawley rats by injecting 50 μL of a 0.375% solution of carrageenan X in saline, subcutaneously in the foot. After one hour animals were orally dosed once with PBS, compound I-1-Z at 50 mg/kg or with indomethacin at 3 mg/kg. The size of the paws were measured before induction of edema (baseline), and at 1.5, 3, 4.5 and 6 h after carrageenan injection. […] Statistical analyses were performed with repeated measures ANOVA followed by Dunnett's test for multiple comparisons.
Groups of eight Sprague Dawley rats were orally administered PBS, or 0.01, 0.1 or 1 mg/kg of compound I-1-Z. One hour later paw edema was induced in all animals by injecting 50 μL of a 0.5% solution of carrageenan X in saline, subcutaneously into the footpad. The size of the foot of each animal was measured volumetrically before induction of edema, and at 1.5, 3, 4.5 and 6 h after the carrageenan injection. The absolute decreases in paw swelling at 6 h with 0.1 and 1 mg/kg were 34±8 and 29±8% respectively. Statistical analyses were performed with repeated measures ANOVA followed by Dunnett's test for multiple comparisons.

## COc1ccc2c(c1)c(CC(=O)O)c(C)n2C(=O)c1ccc(Cl)cc1 [indomethacin, reference compound]
  inhibition of paw edema at 6 h: 67±8%
